Here are results for eight compounds from patent US20090181972A1, “Novel Inhibitors of Cysteine Proteases, the Pharmaceutical Compositions Thereof and their Therapeutic Applications” (priority 2005, published 2009).

What is called GI50 is the concentration that inhibits growth by half.

For assay [1], the system named is PC-3 prostate cancer cells. Description: PC3 cell viability and proliferation assay (MTS). The assay is classed as cell-based. Conditions: Homo sapiens, PC-3, 72 hours incubation, mean of three independent experiments, read-out: PC3 GI50 D3. The protocol:
PC-3 prostate cancer cells were obtained from ATCC, and maintained in F-12K medium containing 7% FBS and 1% penicillin/streptomycin. Cells were incubated at 37° C. in a humidified atmosphere containing 5% CO2.
Cell viability was assayed using the MTS technique in 96-well culture plates (CellTiter 96® Aqueous Non-Radioactive Cell Proliferation Assay, Promega) according to the manufacturer's instructions. MTS (3-(4,5-dimethyl-thiazol-2-yl)-5-(3-carboxymethoxyphenyl)-2-(4-sulfophenyl)-2H-tetrazolium) is a MTT-derived tetrazolium that is reduced in metabolically active cells into a soluble, cell-permeant formazan. The amount of formazan, detected by its absorbance at 492 nm is proportional to the number of living, metabolically active cells.
2×10^3 PC3 cells were seeded per well. 24 hours later, the medium was changed and the cells treated in triplicate with the following concentrations of each compound: 10 μM-3.33 μM-1.11 μM-370 nM-123 nM-41 nM-14 nM and 5 nM. The compounds were diluted in 100% DMSO, whose final concentration on cells was kept at 0.5%.
Cells were incubated with the compounds for 72 hours, and their viability then assayed by the addition of MTS for 2 hours. Absorbance at 492 nm was measured directly from the 96-well culture plates. GI50 (Growth Inhibition 50) concentrations for each compound were calculated using a sigmoidal variable slope fit (Prism 4.0, Graphpad Softwares). Values represent mean of three independent experiments.

For assay [2], the system named is HCT116 colon cancer cells. Description: HCT116 cell viability and proliferation assay (MTS). Type of assay: cell-based. The conditions noted are these: Homo sapiens, HCT-116, 72 hours incubation, mean of three independent experiments, read-out: HCT116 GI50 D3. The protocol:
HCT116 colon cancer cells were obtained from ATCC (American Type Culture Collection), and maintained in Mc Coy's 5A medium containing 10% FBS, 3 mM glutamine and 1% penicillin/streptomycin. Cells were incubated at 37° C. in a humidified atmosphere containing 5% CO2.
Cell viability was assayed using the MTS technique in 96-well culture plates (CellTiter 96® Aqueous Non-Radioactive Cell Proliferation Assay, Promega) according to the manufacturer's instructions. MTS (3-(4,5-dimethyl-thiazol-2-yl)-5-(3-carboxymethoxyphenyl)-2-(4-sulfophenyl)-2H-tetra-zolium) is a MTT-derived tetrazolium that is reduced in metabolically active cells into a soluble, cell-permeant formazan. The amount of formazan, detected by its absorbance at 492 nm is proportional to the number of living, metabolically active cells.
10^3 HCT116 cells were seeded per well. 24 hours later, the medium was changed and the cells treated in triplicate with the following concentrations of each compound: 10 μM-3.33 μM-1.11 μM-370 nM-123 nM-41 nM-14 nM and 5 nM. The compounds were diluted in 100% DMSO, whose final concentration on cells was kept at 0.5%.
Cells were incubated with the compounds for 72 hours, and their viability then assayed by the addition of MTS for 2 hours. Absorbance at 492 nm was measured directly from the 96-well culture plates. G150 (Growth Inhibition 50) concentrations for each compound were calculated using a sigmoidal variable slope fit (Prism 4.0, Graphpad Softwares). Values represent mean of three independent experiments.

In assay [3] the target is T1, USP7 (Homo sapiens, UniProt Q93009).
T1 construct: His tag (pFastBac-HT vector) (N); made in house; host or cells: Sf9 or High Five insect cells (baculovirus)
T1 sequence (Q93009 whole entry): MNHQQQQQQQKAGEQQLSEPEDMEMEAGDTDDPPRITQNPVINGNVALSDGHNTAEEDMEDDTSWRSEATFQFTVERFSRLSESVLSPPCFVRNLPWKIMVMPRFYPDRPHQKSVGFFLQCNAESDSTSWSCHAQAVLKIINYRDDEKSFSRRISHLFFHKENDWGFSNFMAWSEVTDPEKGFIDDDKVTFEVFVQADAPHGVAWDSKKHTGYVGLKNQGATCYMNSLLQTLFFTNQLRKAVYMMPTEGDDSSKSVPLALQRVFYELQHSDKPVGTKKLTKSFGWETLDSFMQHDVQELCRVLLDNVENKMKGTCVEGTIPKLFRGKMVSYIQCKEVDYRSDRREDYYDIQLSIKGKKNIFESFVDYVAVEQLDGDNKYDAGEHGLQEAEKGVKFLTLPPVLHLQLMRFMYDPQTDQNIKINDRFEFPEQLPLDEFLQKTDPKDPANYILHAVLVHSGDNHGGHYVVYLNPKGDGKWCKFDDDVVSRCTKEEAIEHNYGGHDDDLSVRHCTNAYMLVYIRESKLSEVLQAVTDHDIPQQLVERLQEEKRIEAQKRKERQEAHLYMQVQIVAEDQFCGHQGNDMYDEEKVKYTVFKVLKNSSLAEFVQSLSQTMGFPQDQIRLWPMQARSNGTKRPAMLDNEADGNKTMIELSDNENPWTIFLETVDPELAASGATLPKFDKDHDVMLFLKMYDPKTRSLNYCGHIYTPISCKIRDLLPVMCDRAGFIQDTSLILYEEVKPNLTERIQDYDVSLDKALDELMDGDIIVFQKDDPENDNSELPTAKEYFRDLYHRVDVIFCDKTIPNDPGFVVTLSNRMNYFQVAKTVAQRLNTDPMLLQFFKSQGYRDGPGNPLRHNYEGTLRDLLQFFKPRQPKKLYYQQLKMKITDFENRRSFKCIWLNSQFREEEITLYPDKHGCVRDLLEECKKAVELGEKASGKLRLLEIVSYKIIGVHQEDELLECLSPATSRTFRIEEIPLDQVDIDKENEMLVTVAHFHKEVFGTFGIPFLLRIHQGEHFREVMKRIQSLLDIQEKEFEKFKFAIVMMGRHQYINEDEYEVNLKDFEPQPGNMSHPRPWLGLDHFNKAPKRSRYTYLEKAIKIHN
Briefly: USP7 activity assay. Type of assay: biochemical. Conditions: 400 nM Ub-AMC, 152 pM enzyme; pre-incubated 30 minutes at 25° C., 60 minutes at 37° C.; sigmoidal fit; read-out: USP 7. An excerpt:
The cDNA encoding USP7 was obtained by PCR amplification from placenta mRNA. USP7 cDNA was subcloned by PCR into a baculovirus expression vector (pFastBac-HT; Invitrogen). A cDNA encoding a mutated USP7 was generated by mutagenic PCR. The corresponding protein encodes a cysteine to alanine substitution at residue 223. The sequences were ascertained by sequencing of the entire open reading frame. Bacmids encoding USP7 were generated following DH10bac transposition. The corresponding bacmids were transfected into insect cells (Sf9). Viruses were recovered from culture supernatant and amplified twice. Insect cells (Sf9 or High Five; lnvitrogen) were infected for 72 hours. Total cell lysates were harvested and lyzed in lysis buffer (Tris HCl 50 mM pH 7.6; 0.75 % NP40; 500 mM NaCl; 10% glycerol; 1 mM DTT; 10 mM imidazole; Protease Inhibitor Cocktail; AEBSF 20 μg.ml^−1; Aprotinin 10 μg.ml^−1). Proteins were affinity purified on metal affinity resins (Talon Metal affinity resin; BD Biosciences). Bound materials were extensively washed in wash buffer (50 mM Sodium Phosphate pH 7.0; 300 mM NaCl; 10 mM imidazole; 0.5% Triton X-100; 10% glycerol) and eluted from the resin in 250 mM imidazole-containing wash buffer. Proteins were dialyzed in dialysis buffer (Tris HCl pH 7.6 20 mM; NaCl 200 mM; DTT 1 mM; EDTA 1 mM; 10% Glycerol). Proteins purifications were analyzed on 4-12% NuPAGE (Invitrogen).
USP7 was diluted in USP buffer (50 mM Tris HCl; 0.5 mM EDTA; 5 mM DTT; 0.01 % Triton X-100; Bovine Serum Albumin 0.05 mg.ml^−1 pH 7.6). Compounds stocks (100 mM) were stored at −20° C. in DMSO. Compounds were tested at the following final concentrations: 100 μM; 33.3 μM; 11.1 μM; 3.7 μM; 1.23 μM; 412 nM; 137 nM; 45.7 nM; 15.2 nM; 5 nM.
(§1) Reactions were performed as duplicates in Black LJL 96 well plates (HE microplates; Molecular Devices; 20 μl final reaction volume). The substrate concentration for USP7 was 400 nM Ub-AMC (Chem. Biol., 2003, 10, p. 837-846) (Boston Biochem). The concentrations of the enzyme (USP7) in specificity assays was 152 pM. The concentrations were determined in order to perform specificity assays under initial velocities at fixed substrate concentration. Compounds were pre-incubated with enzymes for 30 minutes at 25° C. Reactions were initiated by addition of substrate to the plates containing the enzymes (+/− compounds) diluted in assay buffer. Reactions were incubated for 60 minutes at 37° C. Reactions were stopped by adding acetic acid (100 mM final). Readings were performed on a Pherastar Fluorescent Reader (BMG). λ Emission 380 nm; λ Excitation=460 nm. Data (mean values +/− standard deviation) were analyzed as % of control (no compound) and plotted as percentage versus the Log of the compound concentration using GraphPad (Prism). Data were fitted to a sigmoidal model (variable slope).

For assay [4], the target named is T2, USP5 (Homo sapiens, UniProt P45974).
T2 sequence (P45974 1-858): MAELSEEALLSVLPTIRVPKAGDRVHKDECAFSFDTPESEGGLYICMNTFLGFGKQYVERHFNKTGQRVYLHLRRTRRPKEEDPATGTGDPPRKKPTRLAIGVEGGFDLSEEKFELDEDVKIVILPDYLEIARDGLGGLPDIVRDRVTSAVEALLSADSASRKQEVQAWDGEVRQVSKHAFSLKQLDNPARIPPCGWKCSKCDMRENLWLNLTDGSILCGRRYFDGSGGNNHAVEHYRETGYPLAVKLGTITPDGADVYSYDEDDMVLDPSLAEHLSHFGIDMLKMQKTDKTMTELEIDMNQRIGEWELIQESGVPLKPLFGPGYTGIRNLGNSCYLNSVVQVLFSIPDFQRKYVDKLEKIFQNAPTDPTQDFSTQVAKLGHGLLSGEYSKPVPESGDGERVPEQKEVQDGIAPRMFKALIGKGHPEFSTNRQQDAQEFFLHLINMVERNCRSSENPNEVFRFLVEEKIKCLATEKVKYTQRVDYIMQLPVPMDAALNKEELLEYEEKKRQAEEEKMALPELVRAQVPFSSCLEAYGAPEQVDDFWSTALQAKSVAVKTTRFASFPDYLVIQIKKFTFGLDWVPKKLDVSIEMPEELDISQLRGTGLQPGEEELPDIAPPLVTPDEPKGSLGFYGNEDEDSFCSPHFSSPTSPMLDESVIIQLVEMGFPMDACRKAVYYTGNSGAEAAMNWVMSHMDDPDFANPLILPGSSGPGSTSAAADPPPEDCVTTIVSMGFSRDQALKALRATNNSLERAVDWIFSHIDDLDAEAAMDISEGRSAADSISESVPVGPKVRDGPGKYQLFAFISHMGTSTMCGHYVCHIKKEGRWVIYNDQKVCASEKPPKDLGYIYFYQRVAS
Description: USP5 activity assay. The assay is classed as biochemical. Conditions: 400 nM Ub-AMC, 300 pM enzyme; pre-incubated 30 minutes at 25° C., 60 minutes at 37° C.; sigmoidal fit; read-out: USP 5. The procedure: USP5 was diluted in USP buffer (50 mM Tris HCl; 0.5 mM EDTA; 5 mM DTT; 0.01% Triton X-100; Bovine Serum Albumin 0.05 mg.ml^−1 pH 7.6). Compounds stocks (100 mM) were stored at -20° C. in DMSO.
as §1, with “USP5” for “USP7”, “Ub-AMC” for “Ub-AMC (Chem. Biol., 2003, 10, p. 837-846)”, “(USP5)” for “(USP7)”, “300” for “152”

Take `CC(C)Cc1nnc2nc3c(nn12)C(=O)c1ccccc1-3` [Example 1g/A, 1-Isobutyl-2,3,4,10,10a-pentaaza-cyclopenta[b]fluoren-9-one]: the GI50 in assay [1] amounted to 4 µM; in assay [2] it was 3 µM. Moreover, in assay [3], the IC50 is more than 100 µM.

In the case of `COCc1nnc2nc3c(nn12)C(=O)c1ccccc1-3` [Example 1i/A, 1-Methoxymethyl-2,3,4,10,10a-pentaaza-cyclopenta[b]fluoren-9-one], the GI50 in assay [1] was 1.75 µM; in assay [2], 1.28 µM. In addition, in assay [3], the IC50 is more than 100 µM.

As for `O=C1c2ccccc2-c2nn3c(C4CC4)nnc3nc21` [Example 1j/B, 3-Cyclopropyl-1,2,3a,4,10-pentaaza-cyclopenta[b]fluoren-9-one], the values for the GI50 in assay [1] and in assay [2] were 0.107 µM and 0.16 µM, respectively. Besides, the IC50 in assay [4] worked out at 0.317 µM.

Turning to `O=C1c2ccccc2-c2nc3nn(Cc4ccccc4)nc3nc21` [Example 4b, 2-Benzyl-2H-1,2,3,4,10-pentaaza-cyclopenta[b]fluoren-9-one], the IC50 in assay [3] and in assay [4] was more than 100 µM in each case.

As to `CCCc1nnc2nc3c(nn12)C(=O)c1ccccc1-3` [Example 1e/A, 1-Propyl-2,3,4,10,10a-pentaaza-cyclopenta[b]fluoren-9-one], the GI50 in assay [1] worked out at 4.2 µM; in assay [2], 3.1 µM. Besides, the IC50 in assay [3] was more than 100 µM.

In the case of `O=C1c2ccccc2-c2nc3nnc(C4CC4)n3nc21` [Example 1j/A, 1-Cyclopropyl-2,3,4,10,10a-pentaaza-cyclopenta[b]fluoren-9-one], in assay [4], the IC50 is 3.1 µM.

`O=C1c2ccccc2-c2nn3c(Cc4ccccc4)nnc3nc21` [Example 1k/B, 3-Benzyl-1,2,3a,4,10-pentaaza-cyclopenta[b]fluoren-9-one]: the figures for the GI50 in assay [1] and in assay [2] were 0.235 µM and 0.149 µM, respectively. Besides, in assay [4], the IC50 came to 0.206 µM.

For `O=C1c2ccccc2-c2nc3nnc(Cc4ccccc4)n3nc21` [Example 1k/A, 1-Benzyl-2,3,4,10,10a-pentaaza-cyclopenta[b]fluoren-9-one], the IC50 in assay [4] turned out to be 34.8 µM.
